Assay results from publication PMC7529893, “Structural basis for substrate recognition and chemical inhibition of oncogenic MAGE ubiquitin ligases” (Nature Communications, 2020).

Target: T1, MAGE-A11:PCF11 interaction (GST-MAGE-A11 and FAM-PCF11_4) (Homo sapiens, UniProt P43364)
T1 construct: GST-MAGE-A11 MHD (human MAGE-A11 MHD amino acid 218-429); made in house; host or cells: E. coli BL21(DE3)
T1 sequence (P43364 218-429): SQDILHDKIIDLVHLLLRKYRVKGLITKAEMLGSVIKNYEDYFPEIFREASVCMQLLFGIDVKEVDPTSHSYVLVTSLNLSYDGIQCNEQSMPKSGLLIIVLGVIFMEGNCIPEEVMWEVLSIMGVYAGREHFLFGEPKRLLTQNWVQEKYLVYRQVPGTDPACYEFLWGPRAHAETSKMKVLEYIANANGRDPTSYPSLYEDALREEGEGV
Assay: TR-FRET primary / single point screen at 15 µM
Type: binding
Summary of the method: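 TR-FRET 520/490 nm emission ratio was read after 90 min at room temperature. Wells held 5 nM GST-MAGE-A11, 5 nM Tb-anti-GST, 200 nM FAM-PCF11_4 and 15 µM compound in Tris pH 7.5 buffer with MgCl2, BSA and DTT. %Inhibition was scaled to DMSO and minus-MAGE-A11 controls.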

[1] = single point TR-FRET screening of 797 quinoline compounds against MAGE-A11:PCF11
[2] = single point TR-FRET screening of quinoline compounds against MAGE-A11:PCF11, 15 µM

Row | Compound | percent inhibition (TR-FRET) [1] | percent inhibition (TR-FRET) [2]
1 | COc1ccccc1N1CCN(c2c(S(=O)(=O)c3ccc(C)c(C)c3)cnc3ccccc23)CC1 [SJ000117068] | -5.706 | 
2 | CCCN(CCCNc1ccnc2cc(Cl)ccc12)Cc1cc2ccccc2s1 [SJ000522993] |  | 5.864
3 | CCCN(CCCNc1ccnc2cc(Cl)ccc12)Cc1ccc(F)cc1 [SJ000522759] |  | 20.7933
4 | COc1ccc2nc3cc(Cl)ccc3c(NCCCNCc3cccc(C)c3)c2c1 [SJ000522956] |  | -7.0891
5 | CCCN(CCCNc1ccnc2cc(Cl)ccc12)Cc1cccc(C)c1 [SJ000523041] |  | 28.5489
6 | CCCN(CCCNc1ccnc2cc(Cl)ccc12)Cc1c(Cl)ccc(Cl)c1Cl [SJ000523046] |  | 17.7459
7 | CCc1nc2ccccc2c(NC(=O)CNC(C)(C)CC(C)(C)C)c1C [SJ000049110] | -0.6045 | 
8 | CCN1CCN(c2c(S(=O)(=O)c3ccc(OC)cc3)cnc3cc(OC)c(OC)cc23)CC1 [SJ000083972] | 7.411 | 
9 | Clc1ccc2c(NCCNCC[C@H]3CC[C@]4(CC3)OO[C@]3(O4)C4CC5CC(C4)CC3C5)ccnc2c1 [SJ000578381] | 18.3966 | 
10 | CCCN(CCCNc1ccnc2cc(C(F)(F)F)ccc12)Cc1ccccc1OC [SJ000523072] |  | 32.6098
11 | C#Cc1ccccc1CN(CCC)CCCNc1ccnc2cc(Cl)ccc12 [SJ000523000] |  | 12.4462
12 | Cn1cccc1CNCCCNc1ccnc2cc(C(F)(F)F)ccc12 [SJ000521041] |  | -6.879
13 | COc1ccc(CN2CCC(Nc3ccnc4cc(Cl)ccc34)CC2)cc1 [SJ000523090] | 23.7178 | 
14 | CSCCCNCCCNc1ccnc2cc(Cl)ccc12 [SJ000523051] |  | 14.9659
15 | COc1cc2ncc(S(=O)(=O)c3ccc(C)cc3)c(N3CCN(C)CC3)c2cc1OC [SJ000083951] | 1.3128 | 
16 | CCCN(CCCNc1ccnc2cc(Cl)ccc12)CC(CC)CC [SJ000522752] |  | 14.1686
17 | CCCN(CCCNc1c2ccc(Cl)cc2nc2ccc(OC)cc12)Cc1cn(C(C)=O)c2ccccc12 [SJ000522736] | -192.351 | 
18 | COc1ccccc1N1CCN(c2c(S(=O)(=O)c3ccc(Cl)cc3)cnc3ccc(C)cc23)CC1 [SJ000117070] | -15.3715 | 
19 | CCCN(CCCNc1c2ccc(Cl)cc2nc2ccc(OC)cc12)Cc1ccc(Cl)c([N+](=O)[O-])c1 [SJ000522738] |  | -71.0252
20 | Oc1ccccc1CN(CCCNc1ccnc2cc(Cl)ccc12)Cc1ccccc1 [SJ000361167] |  | 19.2696
21 | CCCN(CCCNc1ccnc2cc(Cl)ccc12)Cc1ccco1 [SJ000357458] |  | 3.483
22 | CCCN(CCCNc1c2ccc(Cl)cc2nc2ccc(OC)cc12)Cc1cn(C)c2ccccc12 [SJ000522964] | -162.244 | 

Row | Compound | percent inhibition (TR-FRET) [1] | percent inhibition (TR-FRET) [2]
23 | CCN1CCN(c2c(S(=O)(=O)c3ccc(C)cc3)cnc3ccc(OC)cc23)CC1 [SJ000083963] | -3.917 | 
24 | c1ccc(-c2ccc3c(NCCCNCc4ccco4)ccnc3c2)cc1 [SJ000311282] |  | 28.689
25 | Clc1ccc2c(NCCCN(Cc3ccccc3)Cc3csc4ccccc34)ccnc2c1 [SJ000520454] |  | 28.1386
26 | CCCN(CCCNc1c2ccc(Cl)cc2nc2ccc(OC)cc12)Cc1ccc(C(=O)OC)cc1 [SJ000523018] | -118.624 | 
27 | COc1ccccc1N1CCN(c2c(S(=O)(=O)c3ccc(C)cc3)cnc3ccc(Cl)cc23)CC1 [SJ000117067] | -12.8602 | 
28 | Cc1ccc(CNCCCNc2ccnc3cc(C(F)(F)F)ccc23)o1 [SJ000361109] |  | 14.4523
29 | CCCN(CCCNc1c2ccc(Cl)cc2nc2ccc(OC)cc12)Cc1cc(C)ccc1C [SJ000520960] | -119.324 | 
30 | CCCN(CCCNc1ccnc2cc(Cl)ccc12)Cc1ccc2ccccc2c1 [SJ000523040] |  | 32.8503
31 | COc1ccc2nc3cc(Cl)ccc3c(NCCCNCc3c(F)cccc3OC)c2c1 [SJ000520915] | -298.775 | 
32 | COc1ccccc1Oc1ccc2c(NCCCNCc3ccco3)ccnc2c1 [SJ000311210] |  | 24.558
33 | CCCN(CCCNc1ccnc2cc(C(F)(F)F)ccc12)Cc1cccc2c1OCO2 [SJ000520472] |  | 14.6158
34 | CCCN(CCCCCC(=O)OC)CCCNc1c2ccc(Cl)cc2nc2ccc(OC)cc12 [SJ000575151] |  | -37.4059
35 | CCc1nc2ccccc2c(NC(=O)CN2CCN(c3ccccc3)CC2)c1C [SJ000111681] | 6.8942 | 
36 | COc1ccc2nc3cc(Cl)ccc3c(NCCCNCc3ccc(OC(F)(F)F)cc3)c2c1 [SJ000520992] | -200.963 | 
37 | Cc1ccsc1CNCCCNc1ccnc2cc(Cl)ccc12 [SJ000311189] |  | 6.554
38 | CCCN(CCCNc1c2ccc(Cl)cc2nc2ccc(OC)cc12)Cc1cccc(OC(F)(F)F)c1 [SJ000522967] |  | 14.4758
39 | CCCN(CCCNc1ccnc2cc(Cl)ccc12)Cc1ccoc1 [SJ000357442] |  | 6.2139
40 | CC(C)(C)c1ccc(-c2ccc3c(NCCCNCc4ccco4)ccnc3c2)cc1 [SJ000311286] |  | 73.499
41 | O=[N+]([O-])c1cccc(CN(CCCCNc2ccnc3cc(Cl)ccc23)Cc2ccccc2)c1 [SJ000361201] | 24.3707 | 
42 | CCC(C)CN1CCC(Nc2ccnc3cc(Cl)ccc23)CC1 (stereo not shown) [SJ000523105] | 11.185 | 
43 | CCCN(CCCNc1ccnc2cc(C(F)(F)F)ccc12)Cc1ccc2ccccc2c1 [SJ000523075] |  | 11.3882
44 | CCCN(CCCNc1c2ccc(Cl)cc2nc2ccc(OC)cc12)Cc1nccs1 [SJ000522988] | -117.531 | 

Row | Compound | percent inhibition (TR-FRET) [1] | percent inhibition (TR-FRET) [2]
45 | CCN1CCN(c2c(S(=O)(=O)c3ccccc3)cnc3ccc(Cl)cc23)CC1 [SJ000083960] | 4.43 | 
46 | CCCN(CCCNc1ccnc2cc(Cl)ccc12)Cc1cc(C(F)(F)F)ccc1OC [SJ000523012] |  | 30.3991
47 | COc1ccc2nc3cc(Cl)ccc3c(NCCCNCc3cc(F)ccc3F)c2c1 [SJ000361091] | -327.201 | 
48 | Clc1ccc2c(NCCCNCc3ccncc3)ccnc2c1 [SJ000523049] |  | 6.077
49 | CCCN(CCCNc1c2ccc(Cl)cc2nc2ccc(OC)cc12)Cc1ccccc1O [SJ000520926] |  | -91.8376
50 | CCc1ccc2ncc(S(=O)(=O)c3ccc(C)cc3)c(N3CCN(CC)CC3)c2c1 [SJ000083962] | 2.377 | 
51 | COc1cccc(Oc2ccc3c(NCCCNCc4ccco4)ccnc3c2)c1 [SJ000311214] |  | 29.109
52 | CCCCNCCCNc1ccnc2cc(C(F)(F)F)ccc12 [SJ000521055] |  | 18.5367
53 | CCCN(CCCNc1c2ccc(Cl)cc2nc2ccc(OC)cc12)Cc1ccc([N+](=O)[O-])s1 [SJ000522735] | -154.43 | 
54 | CCCN(CCCNc1c2ccc(Cl)cc2nc2ccc(OC)cc12)Cc1ccsc1 [SJ000520922] | -258.026 | 
55 | CCN(CC)CCCC(C)Nc1c2ccc(Cl)cc2nc2ccc(OC)cc12 (stereo not shown) [SJ000285202] | -265.674 | 
56 | COc1ccc(F)cc1CN(CCCCNc1ccnc2cc(Cl)ccc12)Cc1ccccc1 [SJ000357496] | 20.7772 | 
57 | CCOc1ccc2ncc(C(=O)c3ccc(C)cc3)c(N3CCN(CC)CC3)c2c1 [SJ000247284] | -14.2514 | 
58 | CCC(CC)CNCCCNc1ccnc2cc(Cl)ccc12 [SJ000361103] |  | 16.5535
59 | CCOC(=O)c1cnc2ccc(OC)cc2c1NCCCN1CCOCC1 [SJ000127046] |  | 2.945
60 | CCCN(CCCNc1c2ccc(Cl)cc2nc2ccc(OC)cc12)Cc1c(F)cccc1C(F)(F)F [SJ000522968] |  | 23.0877
61 | CCCCCN(CCCCC)CC(=O)Nc1c2c(nc3ccccc13)CCC2 [SJ000487033] | -68.0728 | 
62 | Clc1ccc2c(NCCCNCC3CC3)ccnc2c1 [SJ000361101] |  | 11.4651
63 | CCCN(CCCNc1ccnc2cc(Cl)ccc12)Cc1ccc([N+](=O)[O-])s1 [SJ000522750] |  | 9.134
64 | Cc1ccc(F)cc1CN(CCCCNc1ccnc2cc(Cl)ccc12)Cc1ccccc1 [SJ000520449] | 42.3236 | 
